Laboratory results from US20230202990A1, “CYCLOHEXYL SUBSTITUTED TRIAZOLES” (Hoffmann-La Roche Inc., priority 2020, published 2023).

target: T1, human V1a receptor (Homo sapiens, UniProt P37288); assay: human V1a receptor binding studies (3H-Vasopressin SPA, HEK293 cell membranes); settings: competition with 3H-Vasopressin on membranes of HEK293 cells transiently transfected with human V1a receptor; Ki by Cheng-Prussoff equation; read-out: pKi (hV1a) (converted)
T1 construct: expressed in transfected cells; host or cells: HEK293 cells, transiently transfected; cell membranes
T1 sequence (P37288 whole entry): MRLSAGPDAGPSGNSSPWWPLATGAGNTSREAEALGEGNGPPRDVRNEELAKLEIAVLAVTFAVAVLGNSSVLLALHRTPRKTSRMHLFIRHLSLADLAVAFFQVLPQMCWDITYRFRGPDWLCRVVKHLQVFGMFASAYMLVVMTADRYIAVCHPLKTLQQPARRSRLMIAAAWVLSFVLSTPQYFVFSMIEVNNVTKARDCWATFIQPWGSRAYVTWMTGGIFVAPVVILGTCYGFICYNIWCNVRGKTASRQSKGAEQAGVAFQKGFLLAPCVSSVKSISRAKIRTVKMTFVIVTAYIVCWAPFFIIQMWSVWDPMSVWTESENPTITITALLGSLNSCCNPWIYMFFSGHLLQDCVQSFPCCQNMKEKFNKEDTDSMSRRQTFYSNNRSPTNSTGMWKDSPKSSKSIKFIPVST
Method: The human V1a receptor was cloned by RT-PCR from total human liver RNA. The coding sequence was subcloned in an expression vector after sequencing to confirm the identity of the amplified sequence. […] Cell membranes were prepared from HEK293 cells transiently transfected with the expression vector and grown in 20 liter fermenters with the following protocol.
50 g of cells are re-suspended in 30 ml freshly prepared ice cold Lysis buffer (50 mM HEPES, 1 mM EDTA, 10 mM MgCl2 adjusted to pH= 7.4 + complete cocktail of protease inhibitor (Roche Diagnostics)). Homogenized with Polytron for Imin and sonicated on ice for 2x 2 minutes at 80% intensity (Vibracell sonicator). The preparation is centrifuged 20 min at 500 g at 4° C., the pellet is discarded and the supernatant centrifuged 1 hour at 43 ′000g at 4° C. (19 ′000rpm). The pellet is re-suspended in 12.5 ml Lysis buffer+12.5 ml Sucrose 20% and homogenized using a Polytron for 1-2 min. The protein concentration is determined by the Bradford method and aliquots are stored at -80° C. until use. For binding studies 60 mg Yttrium silicate SPA beads (Amersham) are mixed with an aliquot of membrane in binding buffer (50 mM Tris, 120 mM NaCl, 5 mM KCl, 2 mM CaCl2, 10 mM MgCl2) for 15 minutes with mixing. 50 µl of bead/membrane mixture is then added to each well of a 96 well plate, followed by 50 µl of 4 nM 3H-Vasopressin (American Radiolabeled Chemicals). For total binding measurement 100 µl of binding buffer are added to the respective wells, for non-specific binding 100 µl of 8.4 mM cold vasopressin and for compound testing 100 µl of a serial dilution of each compound in 2% DMSO. The plate is incubated 1 h at room temperature, centrifuged 1 min at 1000 g and counted on a Packard Top-Count. Non-specific binding counts are subtracted from each well and data is normalized to the maximum specific binding set at 100%. To calculate an IC50 the curve is fitted using a non-linear regression model (XLfit) and the Ki is calculated using the Cheng-Prussoff equation.

Question: Cc1nnc([C@H]2CC[C@H](Oc3ccccn3)CC2)n1-c1ccc(Cl)cc1 [Example 3, trans(4-(4-(4-Chlorophenyl)-5-methyl-4H-1,2,4-triazol-3-yl)cyclohexyloxy)pyridine] was tested. Which Ki did it give?
Answer: 0.912 nM

Question: COCc1nnc([C@H]2CC[C@H](Oc3ccc(C)nc3)CC2)n1-c1ccc(C)cc1 [Example 66, trans[4-[5-(Methoxymethyl)-4-(4-methylphenyl)-1,2,4-triazol-3-yl]cyclohexyl]oxy-2-methylpyridine] was tested. Which Ki did it give?
Answer: 3.47 nM

Question: Cc1cc(Cl)ccc1-n1cnnc1[C@H]1CC[C@H](Oc2ccccn2)CC1 [Example 53] was tested. Which Ki did it give?
Answer: 0.891 nM

Question: With CS(=O)(=O)c1nnc([C@H]2CC[C@H](Oc3ccccn3)CC2)n1-c1ccc(Cl)cc1 [Example 48, trans((4-(4-(4-Chlorophenyl)-5-(methylsulfonyl)-4H-1,2,4-triazol-3-yl)cyclohexyl)oxy)pyridine] as the molecule, how does the Ki read?
Answer: 20 nM

Question: With Cc1ccc(-n2c(C(F)F)nnc2[C@H]2CC[C@H](Oc3ccccn3)CC2)cc1 [Example 31, trans((4-(5-(Difluoromethyl)-4-(p-tolyl)-4H-1,2,4-triazol-3-yl)cyclohexyl)oxy)pyridine] as the molecule, how does the Ki read?
Answer: 3.39 nM
